Assay results reported in patent publication US6906035B2, “Antimicrobial cationic peptides” (priority 1995, dated 2005).
Several values for one entry are separate records, joined by “and”; a condition that tells them apart may be missing. Equal values may be shown once. Read-outs that look alike come from different tables or passages of the source.

Legend:
P. aeruginosa [1] = system: P. aeruginosa
Outline: (§1)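 Overnight cultures in salt-free Luria broth (LB-S) were diluted to about 10^4–10^5 CFU/ml. Cells were exposed to two-fold serial dilutions of compound and incubated overnight at 37 °C. MIC was scored from visible growth.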

S. epidermis = settings: S. epidermis
Outline: as §1

A. calcoaceticus [2] = test: MIC, broth dilution in LB-S; format: cell-based; settings: additional MICs
Outline: (§2)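 Overnight cultures in salt-free Luria broth (LB-S) were diluted 1:10,000 (about 10^4–10^5 CFU/ml) and added to two-fold serial broth dilutions of compound. After overnight incubation at 37° C, wells were scored for growth, and the MIC was the lowest concentration preventing growth.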

E. cloacae [3] = test: MIC, broth dilution in LB-S; format: cell-based; settings: additional MICs
Outline: as §2

E. coli = test: MIC, broth dilution in LB-S; format: cell-based
Outline: as §2

E. faecalis = test: MIC, broth dilution in LB-S; format: cell-based; settings: Table 1b, separate set of experiments
Outline: as §2

K. pneumoniae = test: MIC, broth dilution in LB-S; format: cell-based; settings: additional MICs
Outline: as §2

S. aureus = test: MIC, broth dilution in LB-S; format: cell-based
Outline: as §2

X maltophilia = test: MIC, broth dilution in LB-S; format: cell-based; settings: additional MICs
Outline: as §2

Candida albicans = test: MIC, broth dilution in LB-S; format: cell-based
Experimental: (§3) FICs are performed by checkerboard titrations of peptides in one dimension of a microtiter plate, and of antibiotics in the other dimension, for example. The FIC is calculated by looking at the impact of one antibiotic on the MIC of the other and vice versa. […] Preferably, an FIC of less than 0.5 is obtained for synergism. As used herein, FIC can be determined as follows: [formula]
Briefly, cells were grown overnight at 37° C. in LB-S (Luria broth without any salt supplement) and diluted one in 10,000 in the same medium to give concentrations of about 10^4 to 10^5 CFU/ml. The broth dilutions were set up in a 96 well microtiter plate by putting 200 μl of LB-S containing the initial concentration of antibiotic or compound in column 1 and 100 μl of the same medium in columns 2-12. The compounds were diluted by taking 100 μl of broth from column 1 and mixing it with column 2, resulting in a one in two dilution. This was continued to column 10. Finally, 10 μl of bacteria were pipetted into columns 1-11, and the plates incubated overnight at 37° C. The next day the plates were scored for growth in the wells, and the MIC determined.

E. coli ML 35 = test: Inner membrane permeabilization (ONPG hydrolysis by β-galactosidase); format: cell-based; settings: E. coli ML 35, ONPG
Experimental: Inner membrane permeability was determined by measurement in E. coli ML 35 of β-galactosidase activity using ONPG as a substrate. Normally ONPG cannot pass across the cytoplasmic membrane to permit hydrolysis by the cytoplasmic enzyme β-galactosidase. However, cationic peptides, by permeabilizing the inner membrane, unmasks this enzyme leading to color development as ONP is released. […] Addition of citrate increased the lag time before the peptides were able to permeabilize the membranes. When the experiments were executed in cation adjusted media (CAMHB), the lag time was increased up to 30 minutes.

LPS = test: Dansyl polymyxin displacement assay; format: binding; settings: Dansyl polymyxin displacement from LPS
From the text: In addition, the peptides of SEQ ID NO: 5-8 also bound effectively to LPS with high affinity based on Dansyl polymyxin displacement assays (Table 5).

Red Blood Cells = test: Red blood cell lysis; format: cell-based; settings: concentration lysing Red Blood Cells
[4] = α helical content by CD spectra; format: physicochemical
Experimental: α Helical Content of Cationic Peptides by CD Spectra
The α helical content of the peptides were measured in buffer, liposomes and 20% Hexafluoroisopropanol (HFPIP). The liposomes constituted of POPC alone or POPC and POPC and 30% POPG (Table 7).

A. calcoaceticus [5] = settings: agent alone
Experimental: as §3
(§4) Synergism is identified as an FIC of about ≦0.5.

E. cloacae [6] = settings: agent alone
Experimental: as §3, §4

P. aeruginosa [7] = test: microbe, parasite or virus in culture; settings: agent alone
Experimental: as §3, §4

X. maltophila = test: organism not typed; settings: agent alone
Experimental: as §3, §4

Question: For `CC[C@H](C)[C@H](NC(=O)[C@H](CC(C)C)NC(=O)[C@H](C)NC(=O)[C@@H]1CCCN1C(=O)[C@H](CC(C)C)NC(=O)CNC(=O)[C@@H](NC(=O)[C@@H](NC(=O)[C@H](CC(C)C)NC(=O)[C@@H](NC(=O)[C@H](CCCCN)NC(=O)[C@H](CCCCN)NC(=O)[C@@H](NC(=O)[C@H](C)NC(=O)[C@@H](NC(=O)[C@@H](NC(=O)[C@H](CC(C)C)NC(=O)[C@H](CCCCN)NC(=O)[C@H](CCCCN)NC(=O)[C@@H](NC(=O)[C@H](Cc1ccccc1)NC(=O)[C@H](CO)NC(=O)[C@H](CCCCN)NC(=O)[C@H](Cc1c[nH]c2ccccc12)NC(=O)[C@@H](N)CCCCN)[C@@H](C)CC)[C@@H](C)O)[C@@H](C)O)C(C)C)C(C)C)[C@@H](C)O)[C@@H](C)O)C(=O)N[C@@H](CO)C(=O)O` [MBI 29], which MIC (P. aeruginosa [1]; P. aeruginasa (H 103), additional MICs) is on record?
Answer: 4 µg/mL

Question: And the MIC (P. aeruginosa [1]; P. aeruginosa (H187), Table 1a)?
Answer: 5 µg/mL

Question: What about the MIC (P. aeruginosa [1]; P. aeruginosa (H187), Table 1b, separate set of experiments) of the same compound?
Answer: 16 µg/mL

Question: What about the MIC (P. aeruginosa [1]; P. aeruginosa (H187), Table 1b, separate set of experiments, listed as MBI 29^me) of the same compound?
Answer: 8 µg/mL

Question: And the “MIC P. aeruginosa (H187)” value (P. aeruginosa [1]; P. aeruginosa (H187), Table 6)?
Answer: 1.0 µg/mL

Question: And the MIC (S. epidermis; Table 1a)?
Answer: 10 µg/mL

Question: What about the MIC (S. epidermis; Table 1b, separate set of experiments) of the same compound?
Answer: 16 µg/mL

Question: What about the MIC (S. epidermis; Table 1b, separate set of experiments, listed as MBI 29^me) of the same compound?
Answer: 8 µg/mL

Question: What about the MIC (A. calcoaceticus [2]) of the same compound?
Answer: 4 µg/mL

Question: And the MIC (E. cloacae [3])?
Answer: 2 µg/mL

Question: And the MIC (E. coli; E. coli 0111:B4, additional MICs)?
Answer: 2 µg/mL

Question: What about the MIC (E. coli; E. coli (UB1005), Table 1a) of the same compound?
Answer: 3 µg/mL

Question: What about the MIC (E. coli; E. coli (UB1005), Table 1b, separate set of experiments) of the same compound?
Answer: 4 µg/mL

Question: And the “MIC E. coli (UB 1005)” value (E. coli; E. coli (UB 1005), Table 6)?
Answer: 0.5 µg/mL

Question: What about the MIC (E. coli; E. coli. Bort, additional MICs) of the same compound?
Answer: 6 µg/mL

Question: And the MIC (E. faecalis)?
Answer: 32 µg/mL

Question: What about the MIC (E. faecalis; listed as MBI 29^me) of the same compound?
Answer: ≧64

Question: And the MIC (K. pneumoniae)?
Answer: 16 µg/mL

Question: What about the MIC (S. aureus; S. aureus (K 147), Table 1a) of the same compound?
Answer: 20 µg/mL

Question: And the MIC (S. aureus; S. aureus (K147), Table 1b, separate set of experiments)?
Answer: 32 µg/mL

Question: And the MIC (S. aureus; S. aureus (K147), Table 1b, separate set of experiments, listed as MBI 29^me)?
Answer: 16 µg/mL

Question: What about the MIC (S. aureus; S. aureus (SAP0017), Table 1a) of the same compound?
Answer: 18 µg/mL

Question: What about the MIC (S. aureus; S. aureus (SAP0017), Table 1b, separate set of experiments) of the same compound?
Answer: 32 µg/mL

Question: And the MIC (S. aureus; S. aureus (SAP0017), Table 1b, separate set of experiments, listed as MBI 29^me)?
Answer: 16 µg/mL

Question: And the MIC (X maltophilia)?
Answer: 3 µg/mL

Question: What about the MIC (Candida albicans; Candida albicans (CAN105), Table 1b, separate set of experiments) of the same compound?
Answer: 32 µg/mL

Question: And the MIC (Candida albicans; Candida alibicans (CAN105), Table 1a)?
Answer: 40 µg/mL

Question: What about the “Lag Time” value (E. coli ML 35) of the same compound?
Answer: 66 s

Question: And the “Rate of Hydrolysis” value (E. coli ML 35)?
Answer: 0.21 ΔAU min^−1

Question: And the 1max (LPS)?
Answer: 40%

Question: What about the “RBC Lysis” value (Red Blood Cells) of the same compound?
Answer: >55 µg/mL

Question: And the “% α helicity” value ([4]; 20% HFIP)?
Answer: 50%

Question: And the “% α helicity” value ([4]; Buffer)?
Answer: 0%

Question: What about the “% α helicity” value ([4]; POPC Liposomes) of the same compound?
Answer: 16%

Question: What about the “% α helicity” value ([4]; POPC/POPG Liposomes (30% POPG)) of the same compound?
Answer: 8%

Question: And the MIC (A. calcoaceticus [5]; A. calcoaceticus isolate 1, strain ATCC 23055)?
Answer: 32 µg/mL and 64 µg/mL

Question: What about the MIC (A. calcoaceticus [5]; A. calcoaceticus isolate 7, strain 8222) of the same compound?
Answer: 16 µg/mL and 32 µg/mL

Question: What about the MIC (A. calcoaceticus [5]; A. calcoaceticus isolate 8, strain 8223) of the same compound?
Answer: 16 µg/mL and 32 µg/mL

Question: What about the MIC (A. calcoaceticus [5]; A. calcoaceticus isolate 9, strain 8224) of the same compound?
Answer: 16 µg/mL and 32 µg/mL

Question: What about the MIC (A. calcoaceticus [5]; A. calcoaceticus isolate 10, strain 8225) of the same compound?
Answer: 16 µg/mL and 32 µg/mL

Question: And the MIC (A. calcoaceticus [5]; A. calcoaceticus isolate 11, strain 8226)?
Answer: 16 µg/mL and 32 µg/mL

Question: And the MIC (E. cloacae [6]; E. cloacae isolate 12, strain ATCC 13047)?
Answer: 32 µg/mL and 64 µg/mL

Question: What about the MIC (E. cloacae [6]; E. cloacae isolate 14, strain 938-2) of the same compound?
Answer: 32 µg/mL and 16 µg/mL

Question: And the MIC (E. cloacae [6]; E. cloacae isolate 15, strain B5546)?
Answer: 32 µg/mL

Question: And the MIC (E. cloacae [6]; E. cloacae isolate 17, strain R4148-2)?
Answer: 16 µg/mL and 32 µg/mL

Question: What about the MIC (E. cloacae [6]; E. cloacae isolate 18, strain 3077) of the same compound?
Answer: 32 µg/mL

Question: And the MIC (E. cloacae [6]; E. cloacae isolate 19, strain 3356)?
Answer: 32 µg/mL

Question: What about the MIC (P. aeruginosa [7]; P. aeruginosa isolate 23, strain ATCC 27853) of the same compound?
Answer: 32 µg/mL and 64 µg/mL

Question: What about the MIC (P. aeruginosa [7]; P. aeruginosa isolate 24, strain 34) of the same compound?
Answer: 32 µg/mL and 16 µg/mL

Question: What about the MIC (P. aeruginosa [7]; P. aeruginosa isolate 25, strain 923-1) of the same compound?
Answer: 32 µg/mL and 64 µg/mL

Question: And the MIC (P. aeruginosa [7]; P. aeruginosa isolate 26, strain 3101)?
Answer: 32 µg/mL and 64 µg/mL

Question: What about the MIC (P. aeruginosa [7]; P. aeruginosa isolate 29, strain 15545) of the same compound?
Answer: 32 µg/mL and 64 µg/mL

Question: What about the MIC (P. aeruginosa [7]; P. aeruginosa isolate 32, strain W2897-1) of the same compound?
Answer: 32 µg/mL and 64 µg/mL

Question: And the MIC (X. maltophila; X. maltophila isolate 35, strain 6)?
Answer: 32 µg/mL and 16 µg/mL

Question: What about the MIC (X. maltophila; X. maltophila isolate 36, strain 16) of the same compound?
Answer: 32 µg/mL

Question: And the MIC (X. maltophila; X. maltophila isolate 37, strain 3095)?
Answer: 64 µg/mL

Question: And the MIC (X. maltophila; X. maltophila isolate 38, strain 7901)?
Answer: 64 µg/mL

Question: What about the MIC (X. maltophila; X. maltophila isolate 39, strain B3110.1) of the same compound?
Answer: 32 µg/mL

Question: And the MIC (X. maltophila; X. maltophila isolate 40, strain R1302-1)?
Answer: 32 µg/mL and 64 µg/mL

Question: And the MIC (X. maltophila; X. maltophila isolate 41, strain R4230)?
Answer: 16 µg/mL and 32 µg/mL

Question: And the MIC (X. maltophila; X. maltophila isolate 43, strain TF29-2)?
Answer: 16 µg/mL and 32 µg/mL
